The source of these data is paper PMC6348446 (Journal of Medicinal Chemistry, 2018).

Each structure is given as a SMILES string. In brackets after ≈: the same amount, converted by molar mass.

Data set [1] addresses T1, BRD9 (Homo sapiens, UniProt Q9H8M2).
T1 construct: Western blot analysis of BRD9 and BRD7 levels after treatment of HeLa cells; endogenous in cells; host or cells: HeLa
T1 sequence (Q9H8M2 1-597): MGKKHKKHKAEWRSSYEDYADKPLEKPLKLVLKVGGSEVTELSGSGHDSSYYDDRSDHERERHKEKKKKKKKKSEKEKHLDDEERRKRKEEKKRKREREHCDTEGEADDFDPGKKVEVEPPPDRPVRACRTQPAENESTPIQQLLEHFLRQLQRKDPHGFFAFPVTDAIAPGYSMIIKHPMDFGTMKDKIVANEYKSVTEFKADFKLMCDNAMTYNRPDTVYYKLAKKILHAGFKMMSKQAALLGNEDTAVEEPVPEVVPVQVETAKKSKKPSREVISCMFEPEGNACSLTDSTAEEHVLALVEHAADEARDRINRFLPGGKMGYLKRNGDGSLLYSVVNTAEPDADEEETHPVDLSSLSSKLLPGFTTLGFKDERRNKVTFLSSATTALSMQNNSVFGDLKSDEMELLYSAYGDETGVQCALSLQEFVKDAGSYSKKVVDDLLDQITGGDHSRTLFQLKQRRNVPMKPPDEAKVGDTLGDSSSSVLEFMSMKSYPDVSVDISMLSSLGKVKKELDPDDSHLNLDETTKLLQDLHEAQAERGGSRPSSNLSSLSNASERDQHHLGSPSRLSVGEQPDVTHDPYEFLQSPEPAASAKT
As to the kind of experiment: Western blot of BRD9 levels in HeLa cells after compound treatment. The following applies: 1 μM compound; for remaining activity at 1 µM: Table 2, % of total protein remaining relative to 0.1% DMSO vehicle, HeLa cell lysates; for BRD9 degradation: HeLa cells. Type of data set: cell-based. On the technique in general: Immunoblotting shows a protein as a band on a membrane.

In data set [2] the target is T1, BRD9. As to the kind of experiment: Western blot of BRD9 levels in RI-1 cells after compound treatment. Type of data set: cell-based. The following applies: for BRD9 degradation: 4 h.
Data set [3] in a line: Aqueous kinetic solubility by laser nephelometry. Type of data set: physicochemical. To be noted: for solubility kinetic: MilliQ water with 2.5% DMSO. On the procedure: The aqueous solubility of the test compounds was measured using laser nephelometry.
Compounds were subject to serial dilution from 10 mM to 0.5 mM in DMSO. An aliquot was then mixed with MilliQ water to obtain an aqueous dilution plate with a final concentration range of 250 – 12 µM, with a final DMSO concentration of 2.5%. Triplicate aliquots were transferred to a flat-bottomed polystyrene plate which was immediately read on the NEPHELOstar (BMG Lab Technologies). The amount of laser scatter caused by insoluble particulates (relative nephelometry units, RNU) was plotted against compound concentration using a segmental regression fit, with the point of inflection being quoted as the compounds

In the case of `COc1cc(-c2cn(C)c(=O)c3cnccc23)cc(OC)c1CN1CCN(CCOCCOCC(=O)N[C@H](C(=O)N2C[C@H](O)C[C@H]2C(=O)NCc2ccc(-c3scnc3C)cc2)C(C)(C)C)CC1` [Compound 5, (2S,4R)-1-((S)-2-(2-(2-(2-(4-(2,6-Dimethoxy-4-(2-methyl-1-oxo-1,2-dihydro-2,7-naphthyridin-4-yl)benzyl)piperazin-1-yl)ethoxy)ethoxy)acetamido)-3,3-dimethylbutanoyl)-4-hydroxy-N-(4-(4-methylthiazol-5-yl)benzyl)pyrrolidine-2-carboxamide], at BRD9 [1] (16 h, read-out: BRD9 16 h (%)), the remaining activity at 1 µM was found to be 89%. The BRD9 degradation result is on record as “at most 20%” at BRD9 [1] (4 h) and ≤ 30% at BRD9 [1] (16 h).
As for `COc1cc(-c2cn(C)c(=O)c3cnccc23)cc(OC)c1CN1CCN(CCOCCOCCOc2cc(-c3scnc3C)ccc2CNC(=O)[C@@H]2C[C@@H](O)CN2C(=O)[C@@H](NC(=O)C2(F)CC2)C(C)(C)C)CC1` [Compound 26, (2S,4R)-N-(2-(2-(2-(2-(4-(2,6-Dimethoxy-4-(2-methyl-1-oxo-1,2-dihydro-2,7-naphthyridin-4-yl)benzyl)piperazin-1-yl)ethoxy)ethoxy)ethoxy)-4-(4-methylthiazol-5-yl)benzyl)-1-((S)-2-(1-fluorocyclopropane-1-carboxamido)-3,3-dimethylbutanoyl)-4-hydroxypyrrolidine-2-carboxamide], the remaining activity at 1 µM at BRD9 [1] (4 h, read-out: BRD9 4 h (%)) is 14%.
In general, kinetic solubility refers to the concentration staying in solution when a stock, usually in DMSO, is diluted into the medium. In the case of `COc1cc(-c2cn(C)c(=O)c3cnccc23)cc(OC)c1CN1CCN(CCCCCOc2cc(-c3scnc3C)ccc2CNC(=O)[C@@H]2C[C@@H](O)CN2C(=O)[C@@H](NC(=O)C2(F)CC2)C(C)(C)C)CC1` [Compound 51, (2S,4R)-N-(2-((5-(4-(2,6-Dimethoxy-4-(2-methyl-1-oxo-1,2-dihydro-2,7-naphthyridin-4-yl)benzyl)piperazin-1-yl)pentyl)oxy)-4-(4-methylthiazol-5-yl)benzyl)-1-((S)-2-(1-fluorocyclopropane-1-carboxamido)-3,3-dimethylbutanoyl)-4-hydroxypyrrolidine-2-carboxamide], the remaining activity at 1 µM on BRD9 [2] (2 h, Table 3, % of total protein remaining relative to 0.1% DMSO vehicle, 1 μM compound, RI-1) turned out to be 100%. The “decrease of BRD9 level” value at BRD9 [2] (RI-1 cells, 100 nM, 30 min) is reported as “more than 50%”. Further, on BRD9 [2] (RI-1 cells, 100 nM), the BRD9 degradation result is “more than 90%”. Also, the “concentration window of maximal protein degradation of BRD9” value on BRD9 [2] (RI-1 cells, 2 and 8 h) lay within 10 to 100 nM. Moreover, in data set [3] (2.5% DMSO, listed as VZ185), the “Aqueous Solubility (Kinetic)” value is recorded as ~100 µM. This molecule showed a solubility (kinetic) in data set [3] of 85 µM (≈ 84.6 µg/mL).
As to `COc1cc(-c2cn(C)c(=O)c3cnccc23)cc(OC)c1CN1CCN(CCCCCOc2cc(-c3scnc3C)ccc2CNC(=O)[C@@H]2C[C@H](O)CN2C(=O)[C@@H](NC(=O)C2(F)CC2)C(C)(C)C)CC1` [cisVZ185], on BRD9 [2] (RI-1 cells, 100 nM), the BRD9 degradation entry is recorded as “no degradation”. This molecule had a kinetic solubility in data set [3] of 79 µM (≈ 78.6 µg/mL).
